The values below come from ChEMBL document CHEMBL3865798, “Engineering another class of anti-tubercular lead: Hit to lead optimization of an intriguing class of gyrase ATPase inhibitors” (Eur J Med Chem, 2016).

Data set [1] can be described thus: Growth inhibition of mouse RAW264.7 cells at 100 uM after 48 hrs by MTT assay. The format is cell-based. Conditions: read-out: GI; call rule not given here.
Data set [2] has as its target DNA gyrase subunit B (Mycobacterium smegmatis (strain ATCC 700084 / mc(2)155), UniProt A0QNE0).
Description: Inhibition of Mycobacterium smegmatis 155 6His-tagged DNA gyrase B catalytic domain ATPase activity expressed in Escherichia coli BL21 (DE3) pLysS cells assessed as inorganic phosphate release after 120 mins in presence of ATP by malachite green dye based assay
Data set [3] has as its system Mycobacterium tuberculosis. Description: microbe, parasite or virus in culture. Conditions: H37Rv, 168 h.
Description: Antimycobacterial activity against Mycobacterium tuberculosis H37Rv after 7 days by microplate alamar blue assay
For data set [4], the target named is DNA gyrase subunit B (Mycobacterium smegmatis (strain ATCC 700084 / mc(2)155)) (UniProt A0QNE0). Description: Binding affinity to Mycobacterium smegmatis 155 6His-tagged DNA gyrase B catalytic domain expressed in Escherichia coli BL21 (DE3) pLysS cells assessed as change in melting temperature by SYPRO orange dye based differential scanning fluorimetric analysis. Conditions: Mycolicibacterium smegmatis MC2 155.

Data set [5] is described as follows: AUC (0 to t) in Wistar rat at 1 mg/kg, iv administered as single dose. The format is ADME, organism-based. As to conditions: in vivo.
Data set [6] is described as follows: AUC (0 to infinity) in Wistar rat at 1 mg/kg, iv administered as single dose. Format: ADME, organism-based. Also on record: dose 1 mg/kg, route intravenous, time infinity. As to conditions: in vivo.
Data set [7] in a line: Apparent elimination half life in Wistar rat at 1 mg/kg, iv administered as single dose. The format is ADME, organism-based. As to conditions: in vivo, read-out: betat1/2(app) (converted).
Data set [8] is described as follows: Total clearance in Wistar rat at 1 mg/kg, iv administered as single dose. The format is ADME, organism-based. As to conditions: in vivo.
Data set [9] in a line: Volume of distribution in Wistar rat at 1 mg/kg, iv administered as single dose. Format: ADME, organism-based. As to conditions: in vivo.
Data set [10] in a line: AUC (0 to t) in Wistar rat at 20 mg/kg, po administered as single dose. Conditions: in vivo. The format is ADME, organism-based.
Data set [11] is described as follows: AUC (0 to infinity) in Wistar rat at 20 mg/kg, po administered as single dose. The format is ADME, organism-based. Conditions: in vivo. Also on record: dose 20 mg/kg, time infinity, route oral.
Data set [12] in a line: Cmax in Wistar rat at 20 mg/kg, po administered as single dose. Conditions: in vivo. Also on record: dose 20 mg/kg, route oral. Format: ADME, organism-based.
A short description of data set [13]: Tmax in Wistar rat at 20 mg/kg, po administered as single dose. As to conditions: in vivo. Format: ADME, organism-based.
Data set [14] in a line: Oral bioavailability in Wistar rat at 20 mg/kg administered as single dose. The format is ADME, organism-based. As to conditions: in vivo.
A short description of data set [15]: Time at which plasma concentration stays above in vitro Mycobacterium DNA gyrase IC50 in Wistar rat at 20 mg/kg, po. The format is ADME, organism-based. As to conditions: in vivo.
Data set [16] is described as follows: Protein binding in rat plasma at 100 ng/ml by HPLC analysis. Format: ADME, cell-free. As to conditions: read-out: PPB (converted).
Data set [17] is described as follows: Protein binding in rat plasma at 2500 ng/ml by HPLC analysis. Format: ADME, cell-free. Conditions: read-out: PPB (converted).
Data set [18] in a line: Protein binding in rat plasma at 5000 ng/ml by HPLC analysis. The format is ADME, cell-free. As to conditions: read-out: PPB (converted).
The nature of data set [19]: Protein binding in human plasma at 100 ng/ml by HPLC analysis. Conditions: read-out: PPB (converted). The format is ADME, cell-free.
Data set [20] in a line: Protein binding in human plasma at 2500 ng/ml by HPLC analysis. The format is ADME, cell-free. As to conditions: read-out: PPB (converted).
Data set [21] can be described thus: Protein binding in human plasma at 5000 ng/ml by HPLC analysis. The format is ADME, cell-free. Conditions: read-out: PPB (converted).
Data set [22] can be described thus: Protein binding in human plasma by HPLC analysis. Format: ADME, cell-free.
Data set [23] is described as follows: Protein binding in rat plasma by HPLC analysis. The format is ADME, cell-free.

SMILES strings stand for the structures. Values after ≈ are worked out from the molar mass of the structure shown.

Sequence of DNA gyrase subunit B (Mycobacterium smegmatis (strain ATCC 700084 / mc(2)155), UniProt A0QNE0) (A0QNE0 whole entry): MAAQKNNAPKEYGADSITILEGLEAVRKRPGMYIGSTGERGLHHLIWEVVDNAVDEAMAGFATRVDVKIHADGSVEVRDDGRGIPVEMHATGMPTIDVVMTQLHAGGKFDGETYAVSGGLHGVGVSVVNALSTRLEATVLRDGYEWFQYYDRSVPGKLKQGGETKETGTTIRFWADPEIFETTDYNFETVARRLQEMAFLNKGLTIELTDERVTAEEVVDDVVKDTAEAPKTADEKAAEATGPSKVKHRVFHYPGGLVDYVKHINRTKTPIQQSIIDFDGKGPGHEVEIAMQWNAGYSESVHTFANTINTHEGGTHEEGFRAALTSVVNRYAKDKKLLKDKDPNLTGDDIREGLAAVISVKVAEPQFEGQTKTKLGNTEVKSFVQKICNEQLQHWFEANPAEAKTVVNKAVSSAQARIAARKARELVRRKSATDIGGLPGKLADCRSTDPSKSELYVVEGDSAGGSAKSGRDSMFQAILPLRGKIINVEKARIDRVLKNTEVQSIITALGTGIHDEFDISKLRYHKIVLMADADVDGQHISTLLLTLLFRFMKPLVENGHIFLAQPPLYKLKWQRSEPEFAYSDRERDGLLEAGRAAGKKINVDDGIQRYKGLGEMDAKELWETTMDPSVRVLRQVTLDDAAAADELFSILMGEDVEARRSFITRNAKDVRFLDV
Sequence of DNA gyrase subunit B (Mycobacterium smegmatis (strain ATCC 700084 / mc(2)155)) (A0QNE0 2-675 limits assumed): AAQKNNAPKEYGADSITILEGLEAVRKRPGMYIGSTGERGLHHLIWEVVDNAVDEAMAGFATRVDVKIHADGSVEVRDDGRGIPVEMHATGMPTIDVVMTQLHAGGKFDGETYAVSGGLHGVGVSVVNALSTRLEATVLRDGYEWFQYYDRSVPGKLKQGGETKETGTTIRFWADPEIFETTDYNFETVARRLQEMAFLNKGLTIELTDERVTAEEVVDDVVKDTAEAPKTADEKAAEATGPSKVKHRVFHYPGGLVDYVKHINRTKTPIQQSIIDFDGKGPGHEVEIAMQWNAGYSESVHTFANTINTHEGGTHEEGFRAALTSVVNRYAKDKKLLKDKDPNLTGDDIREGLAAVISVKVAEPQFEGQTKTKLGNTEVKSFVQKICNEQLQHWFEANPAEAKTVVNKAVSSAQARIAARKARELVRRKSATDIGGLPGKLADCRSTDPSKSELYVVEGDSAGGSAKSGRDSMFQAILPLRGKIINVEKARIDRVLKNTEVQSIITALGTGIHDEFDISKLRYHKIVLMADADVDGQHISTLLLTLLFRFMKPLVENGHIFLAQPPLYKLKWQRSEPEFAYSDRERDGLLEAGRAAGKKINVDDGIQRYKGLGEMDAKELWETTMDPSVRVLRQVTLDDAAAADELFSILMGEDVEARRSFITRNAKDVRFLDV

For `Clc1ccc2c(N3CCN(Cc4c[nH]c5ccccc45)CC3)ccnc2c1`, in [1], the inhibition at 48 h, 100 µM came to 22.2%. In addition, the IC50 in data set [2] was 8.3 µM. Also, in [3], the MIC came out at 16.2 µM (≈ 6.12 µg/mL).
With `O=C(CN1CCN(c2ccnc3cc(Cl)ccc23)CC1)Nc1nc2ccc([N+](=O)[O-])cc2s1`, the inhibition at 48 h, 100 µM in data set [1] came to 23.6%. 16.1 µM corresponded to half-maximal inhibition in [2] (IC50). In addition, the MIC in data set [3] was determined as 25.8 µM (≈ 12.5 µg/mL).
Regarding `S=C(Nc1ccccc1)N1CCN(c2ccnc3cc(Cl)ccc23)CC1`, the inhibition at 48 h, 100 µM in data set [1] worked out at 16.5%. In data set [2], the IC50 came out at 4.12 µM. In data set [3], the MIC is 16.3 µM (≈ 6.25 µg/mL).
The corresponding values for `O=C(CN1CCN(c2ccnc3cc(Cl)ccc23)CC1)NCc1ccccn1` are 36.4%, 12.2 µM and 31.6 µM (≈ 12.5 µg/mL).
With `CCNC(=S)N1CCN(c2ccnc3cc(Cl)ccc23)CC1`, the inhibition at 48 h, 100 µM in data set [1] came to 21.9%. In data set [2], this molecule came in with a half-maximal inhibitory concentration (IC50) of 40.6 µM. In data set [3], this molecule showed an MIC of 74.6 µM (≈ 25 µg/mL).
For the molecule `O=C(CN1CCN(c2ccnc3cc(Cl)ccc23)CC1)NCCc1ccccn1`, the inhibition at 48 h, 100 µM in data set [1] amounted to 26.3%. The molecule also gave an IC50 in data set [2] of 30.4 µM. In data set [3], this molecule registered an MIC of 61 µM (≈ 25 µg/mL).
In the case of `O=C(c1cc2cc(F)ccc2[nH]1)N1CCN(c2ccnc3cc(Cl)ccc23)CC1`, the inhibition at 48 h, 100 µM in data set [1] stood at 23.3%. Also, the IC50 in data set [2] came to 13.6 µM. The same molecule returned an MIC in [3] of 15.3 µM (≈ 6.25 µg/mL).
Regarding `O=C(Nc1ccccc1)N1CCN(c2ccnc3cc(Cl)ccc23)CC1`, the inhibition at 48 h, 100 µM in data set [1] was 30.9%. The same molecule came in with an IC50 in data set [2] of 7.6 µM. The MIC in data set [3] was found to be 17 µM (≈ 6.25 µg/mL).
`O=C(CN1CCN(c2ccnc3cc(Cl)ccc23)CC1)Nc1ccccn1`: in [1], the inhibition at 48 h, 100 µM was found to be 25.4%. The IC50 in [2] came to 9.1 µM. Further, the MIC in data set [3] turned out to be 17.7 µM (≈ 6.76 µg/mL).
For `Clc1ccc2c(N3CCN(Cc4ccc[nH]4)CC3)ccnc2c1`, the inhibition at 48 h, 100 µM in [1] came to 12.6%. In addition, in [2], the IC50 came to 16.9 µM. For the same molecule, the MIC in data set [3] turned out to be 76.5 µM (≈ 25 µg/mL).
As to `O=[N+]([O-])c1cnc(N2CCN(c3ccnc4cc(Cl)ccc34)CC2)s1`, the inhibition at 48 h, 100 µM in data set [1] is 35.1%. The same molecule yielded a half-inhibitory concentration (IC50) in [2] of 9.6 µM. In data set [3], this molecule yielded an MIC of 33.2 µM (≈ 12.5 µg/mL).
Take `Fc1ccc(NC(=S)N2CCN(c3ccnc4cc(Cl)ccc34)CC2)cc1`: in [4], the shift in melting temperature (ΔTm) came to 4.1 °C. The inhibition at 48 h, 100 µM in data set [1] came out at 23.9%. Also, the AUC(0-t) in data set [5] worked out at 1240 ng·h/mL; in data set [10] it was 18800 ng·h/mL. The AUC(0-inf) is 1350 ng·h/mL in [6] and 19300 ng·h/mL in [11]. Besides, the half-life in [7] was 2.04 h. The molecule also gave a clearance in data set [8] of 13.3 mL/min/kg. Besides, the Vd in data set [9] worked out at 0.99 L/kg. Also, the Cmax in data set [12] worked out at 2910 ng/mL. Further, the Tmax in data set [13] was found to be 2.2 h. In data set [14], this molecule had a bioavailability of 71.2%. The same molecule yielded a Time in data set [15] of over 6 h. For the same molecule, the values for the fraction unbound at 100 ng/ml in [16] and in data set [19] were 0.065 and 0.078, respectively. For the same molecule, the fraction unbound at 2500 ng/ml in data set [17] was 0.052; in [20], 0.064. Also, the fraction unbound at 5000 ng/ml was 0.046 in data set [18] and 0.057 in [21]. Also, the PPB result in data set [22] and in data set [23] was “Dose-dependent effect” each time. For the same molecule, it took 2.5 µM to reach half-maximal inhibition in [2] (IC50). For the same molecule, the MIC in [3] was found to be 7.8 µM (≈ 3.13 µg/mL).
Turning to `COc1ccc2c(N3CCN(CC(=O)NCc4ccccn4)CC3)ccnc2c1`, the inhibition at 48 h, 100 µM in [1] came out at 33.5%. Also, in data set [2], the concentration for half-maximal inhibition (IC50) amounted to 51.6 µM. This molecule returned an MIC in data set [3] of 63.9 µM (≈ 25 µg/mL).
The corresponding values for `Cc1ccc(NC(=O)N2CCN(c3ccnc4cc(Cl)ccc34)CC2)cc1` are 33.9%, 16 µM and 32.8 µM (≈ 12.5 µg/mL).
As to `O=C(c1ccccn1)N1CCN(c2ccnc3cc(Cl)ccc23)CC1`, the inhibition at 48 h, 100 µM in [1] turned out to be 23.6%. This molecule came in with an IC50 in [2] of 11 µM. This molecule yielded an MIC in [3] of 35.4 µM (≈ 12.5 µg/mL).
As to `O=C(NCc1ccccc1)N1CCN(c2ccnc3cc(Cl)ccc23)CC1`, the inhibition at 48 h, 100 µM in data set [1] amounted to 25.2%. Also, the IC50 in data set [2] is 6.1 µM. This molecule also came in with an MIC in [3] of 17.7 µM (≈ 6.73 µg/mL).
The corresponding values for `O=C(CN1CCN(c2ccnc3cc(Cl)ccc23)CC1)Nc1cc(C(F)(F)F)ccc1Cl` are 24.7%, 31.3 µM and 24.2 µM (≈ 11.7 µg/mL).
`O=C(CN1CCN(c2ccnc3cc(C(F)(F)F)ccc23)CC1)NCc1ccccn1`: the inhibition at 48 h, 100 µM in [1] amounted to 51.2%. In addition, the IC50 in data set [2] was over 75 µM. The molecule also had an MIC in data set [3] of 116 µM (≈ 50 µg/mL).
`CCNC(=O)N1CCN(c2ccnc3cc(Cl)ccc23)CC1`: the inhibition at 48 h, 100 µM in data set [1] is 27%. Besides, the IC50 in data set [2] stood at 45.3 µM. The molecule also registered an MIC in data set [3] of 157 µM (≈ 50 µg/mL).
For the molecule `CC(C)NC(=S)N1CCN(c2ccnc3cc(Cl)ccc23)CC1`, the inhibition at 48 h, 100 µM in data set [1] came out at 36.3%. In [2], the half-inhibitory concentration (IC50) came out at 40.4 µM. Further, in [3], the MIC is 71.6 µM (≈ 25 µg/mL).
On to `COc1ccc(NC(=O)N2CCN(c3ccnc4cc(Cl)ccc34)CC2)cc1`, for which, in data set [1], the inhibition at 48 h, 100 µM worked out at 25.3%. For the same molecule, the IC50 in [2] came to 21.1 µM. In addition, in [3], the MIC was 31.5 µM (≈ 12.5 µg/mL).
In the same order, the values of `Cc1ccc(NC(=S)N2CCN(c3ccnc4cc(Cl)ccc34)CC2)cc1` are 15.8%, 13.8 µM and 63 µM (≈ 25 µg/mL).
Turning to `Clc1ccc2c(N3CCN(Cc4nc5ccccc5[nH]4)CC3)ccnc2c1`, the inhibition at 48 h, 100 µM in [1] is 34.8%. In addition, the IC50 in data set [2] came out at 32.6 µM. In [3], this molecule had an MIC of 27.3 µM (≈ 10.3 µg/mL).
`O=C(c1cc2cc(Cl)ccc2[nH]1)N1CCN(c2ccnc3cc(Cl)ccc23)CC1`: the inhibition at 48 h, 100 µM in [1] was 29.8%. The same molecule gave an IC50 in data set [2] of 10.3 µM. Besides, the MIC in [3] was determined as 14.7 µM (≈ 6.25 µg/mL).
In the same order, the values of `COc1ccc2[nH]c(C(=O)N3CCN(c4ccnc5cc(Cl)ccc45)CC3)cc2c1` are 16.4%, 24.3 µM and 29.7 µM (≈ 12.5 µg/mL).
In the same order, the values of `O=C(Nc1ccc(F)cc1)N1CCN(c2ccnc3cc(Cl)ccc23)CC1` are 17.6%, 3.1 µM and 15.3 µM (≈ 5.88 µg/mL).
Turning to `O=C(CN1CCN(c2ccnc3cc(Cl)ccc23)CC1)Nc1ccccc1`, the inhibition at 48 h, 100 µM in [1] turned out to be 26.2%. In [2], this molecule had an IC50 of 33.1 µM. The MIC in [3] came to 35.5 µM (≈ 13.5 µg/mL).
